# “And” between values parts separate entries of the source, which are not always exact repeats. Equal values may be shown once.
# Key:
# EPHA3 = EPHA3 (Homo sapiens (Human), UniProt P29320); experiment: Reaction Biology HotSpot kinase assay; assay type: biochemical; conditions: 500 nM compound; for inhibition at 0.5 µM: read-out: Percentage kinase inhibition EPHA3
# How it was run: (§1)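 Single-point screen, 500 nM cpd; 20 min preinc with enzyme/substrate; start with ATP + 33P-ATP, 100 μM final; 2 h RT; P81 filter capture. Buffer: 20 mM HEPES pH 7.5, 10 mM MgCl2, 1 mM EGTA, 0.02% Brij35, 1% DMSO. Data as % activity vs DMSO.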
# Aurora A = Aurora A (Homo sapiens (Human), UniProt O14965); experiment: Reaction Biology HotSpot kinase assay; assay type: biochemical; conditions: 500 nM compound; for inhibition at 0.5 µM: read-out: Percentage kinase inhibition Aurora A
# How it was run: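 Each compound was tested at 500 nM, with 33P incorporation from ATP (100 μM final, including [γ-33P]ATP) measured by P81 paper capture after a 2 h room-temperature reaction.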
# CTK/MATK = CTK/MATK (Homo sapiens (Human), UniProt P42679); experiment: Reaction Biology HotSpot kinase assay; assay type: biochemical; conditions: 500 nM compound; for inhibition at 0.5 µM: read-out: Percentage kinase inhibition CTK/MATK
# How it was run: as §1
# FRK/PTK5 = FRK/PTK5 (Homo sapiens (Human), UniProt P42685); experiment: Reaction Biology HotSpot kinase assay; assay type: biochemical; conditions: 500 nM compound; for inhibition at 0.5 µM: read-out: Percentage kinase inhibition FRK/PTK5
# How it was run: as §1
# MKK7 = MKK7 (Homo sapiens (Human), UniProt O14733); experiment: Reaction Biology HotSpot kinase assay; assay type: biochemical; conditions: 500 nM compound; for inhibition at 0.5 µM: read-out: Percentage kinase inhibition MKK7
# How it was run: as §1
# PAK1 = PAK1 (Homo sapiens (Human), UniProt Q13153); experiment: Reaction Biology HotSpot kinase assay; assay type: biochemical; conditions: 500 nM compound; for inhibition at 0.5 µM: read-out: Percentage kinase inhibition PAK1
# How it was run: as §1
# FMS = FMS (Homo sapiens (Human), UniProt P07333); experiment: Reaction Biology HotSpot kinase assay; assay type: biochemical; conditions: 500 nM compound; for inhibition at 0.5 µM: read-out: Percentage kinase inhibition FMS
# How it was run: as §1
# ZAP70 = ZAP70 (Homo sapiens (Human), UniProt P43403); experiment: Reaction Biology HotSpot kinase assay; assay type: biochemical; conditions: 500 nM compound; for inhibition at 0.5 µM: read-out: Percentage kinase inhibition ZAP70
# How it was run: as §1
# HIPK1 = HIPK1 (Homo sapiens (Human), UniProt Q86Z02); experiment: Reaction Biology HotSpot kinase assay; assay type: biochemical; conditions: 500 nM compound; for inhibition at 0.5 µM: read-out: Percentage kinase inhibition HIPK1
# How it was run: as §1
# HCT116 = experiment: Proliferation inhibition at single concentration (CellTiter-Blue); assay type: cell-based; conditions: 1 μM compound
# FLT3 = FLT3 (Homo sapiens (Human), UniProt P36888); experiment: DiscoverX Kd Elect binding
# From the text: Although the current drugs on the market or in clinical trials are relatively successful in killing the AML leukemia cells, they currently are unable to deal with secondary mutations that occur after TKI treatment, such as FLT3 ([…]).
# HCK is expressed more in human primary leukemic stem cells than in human normal hematopoietic stem cells. […] Other protein kinases such as SYK, BRAF, p38 (p38MAPK), PDGFRα/β, FGFR1, RET, FLT4, Tie2 have also been linked to leukemia. […] (Table 9). The inhibition of the Src-kinase family could be important clinically because these kinases are downstream of FLT3. In the event of FLT3 mutation, the inhibition of the Src-family kinases could still lead to proliferation inhibition.
# FLT3 (ITD, F691L) = FLT3 (ITD, F691L) (Homo sapiens, UniProt P36888, F691L/ITD); experiment: DiscoverX Kd Elect binding
# SRC = SRC (Homo sapiens (Human), UniProt P12931); experiment: DiscoverX Kd Elect binding
# Procedure: (§2) HCK is expressed more in human primary leukemic stem cells than in human normal hematopoietic stem cells. […] Other protein kinases such as SYK, BRAF, p38 (p38MAPK), PDGFRα/β, FGFR1, RET, FLT4, Tie2 have also been linked to leukemia. […] Thus, it was tested if HSN286 and analogs were also targeting kinases that play critical roles in AML. […] (Table 9). The inhibition of the Src-kinase family could be important clinically because these kinases are downstream of FLT3. In the event of FLT3 mutation, the inhibition of the Src-family kinases could still lead to proliferation inhibition.
# PIK3CA = PIK3CA (Homo sapiens (Human), UniProt P42336); experiment: DiscoverX Kd Elect binding
# Procedure: as §2
# LYN = LYN (Homo sapiens (Human), UniProt P07948); experiment: DiscoverX Kd Elect binding
# Procedure: as §2
# BLK = BLK (Homo sapiens (Human), UniProt P51451); experiment: DiscoverX Kd Elect binding
# Procedure: as §2
# FYN = FYN (Homo sapiens (Human), UniProt P06241); experiment: DiscoverX Kd Elect binding
# Procedure: as §2
# PIM1 = PIM1 (Homo sapiens (Human), UniProt P11309); experiment: DiscoverX Kd Elect binding
# Procedure: as §2
# AURKA = AURKA (Homo sapiens (Human), UniProt O14965); experiment: DiscoverX Kd Elect binding
# Procedure: as §2
# FGR = FGR (Homo sapiens (Human), UniProt P09769); experiment: DiscoverX Kd Elect binding
# Procedure: as §2
# FAK = FAK (Homo sapiens (Human), UniProt Q05397); experiment: DiscoverX Kd Elect binding
# Procedure: as §2
# KIT = KIT (Homo sapiens (Human), UniProt P10721); experiment: DiscoverX Kd Elect binding
# Procedure: as §2
# HCK = HCK (Homo sapiens (Human), UniProt P08631); experiment: DiscoverX Kd Elect binding
# Procedure: as §2
# PLK1 = PLK1 (Homo sapiens (Human), UniProt P53350); experiment: DiscoverX Kd Elect binding
# Procedure: as §2
# FLT3, sequence (P36888 27-993): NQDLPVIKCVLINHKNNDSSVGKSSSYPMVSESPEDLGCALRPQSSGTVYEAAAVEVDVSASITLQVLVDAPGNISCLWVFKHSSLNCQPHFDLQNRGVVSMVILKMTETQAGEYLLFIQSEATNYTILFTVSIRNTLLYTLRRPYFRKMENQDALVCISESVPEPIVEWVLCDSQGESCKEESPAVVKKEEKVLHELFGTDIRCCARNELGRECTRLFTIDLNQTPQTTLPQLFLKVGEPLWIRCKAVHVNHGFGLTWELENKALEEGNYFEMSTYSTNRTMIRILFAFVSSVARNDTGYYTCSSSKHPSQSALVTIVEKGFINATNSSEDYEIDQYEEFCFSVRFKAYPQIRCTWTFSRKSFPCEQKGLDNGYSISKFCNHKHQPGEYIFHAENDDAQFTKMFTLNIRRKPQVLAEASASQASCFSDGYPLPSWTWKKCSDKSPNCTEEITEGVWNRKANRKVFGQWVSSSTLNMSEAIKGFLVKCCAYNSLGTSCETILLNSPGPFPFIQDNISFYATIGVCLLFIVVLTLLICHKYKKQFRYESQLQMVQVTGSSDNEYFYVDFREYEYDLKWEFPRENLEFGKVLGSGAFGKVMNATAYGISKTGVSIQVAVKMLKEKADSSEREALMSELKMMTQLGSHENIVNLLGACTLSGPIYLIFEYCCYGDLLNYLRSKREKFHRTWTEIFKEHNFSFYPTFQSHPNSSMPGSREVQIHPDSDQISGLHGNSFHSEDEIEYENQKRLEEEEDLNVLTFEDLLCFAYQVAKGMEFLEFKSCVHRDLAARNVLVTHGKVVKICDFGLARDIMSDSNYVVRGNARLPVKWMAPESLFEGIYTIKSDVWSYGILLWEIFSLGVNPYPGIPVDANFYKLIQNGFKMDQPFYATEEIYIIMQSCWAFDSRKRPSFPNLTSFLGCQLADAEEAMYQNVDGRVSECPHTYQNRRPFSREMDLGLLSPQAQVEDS
# FRK/PTK5, sequence (P42685 whole entry): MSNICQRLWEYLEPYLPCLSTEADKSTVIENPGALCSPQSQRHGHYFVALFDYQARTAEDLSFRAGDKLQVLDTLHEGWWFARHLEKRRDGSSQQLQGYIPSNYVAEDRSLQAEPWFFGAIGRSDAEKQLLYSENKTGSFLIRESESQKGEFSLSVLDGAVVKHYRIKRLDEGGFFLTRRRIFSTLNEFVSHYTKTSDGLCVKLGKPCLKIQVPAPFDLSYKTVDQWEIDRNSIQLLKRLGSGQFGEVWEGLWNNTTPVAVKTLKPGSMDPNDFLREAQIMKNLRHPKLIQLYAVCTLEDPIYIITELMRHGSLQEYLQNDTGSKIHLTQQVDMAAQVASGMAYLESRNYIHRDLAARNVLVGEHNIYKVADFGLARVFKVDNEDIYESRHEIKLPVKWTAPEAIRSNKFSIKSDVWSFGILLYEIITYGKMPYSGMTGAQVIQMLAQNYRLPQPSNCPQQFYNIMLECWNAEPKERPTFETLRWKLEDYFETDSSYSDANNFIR
# FMS, sequence (P07333 20-972): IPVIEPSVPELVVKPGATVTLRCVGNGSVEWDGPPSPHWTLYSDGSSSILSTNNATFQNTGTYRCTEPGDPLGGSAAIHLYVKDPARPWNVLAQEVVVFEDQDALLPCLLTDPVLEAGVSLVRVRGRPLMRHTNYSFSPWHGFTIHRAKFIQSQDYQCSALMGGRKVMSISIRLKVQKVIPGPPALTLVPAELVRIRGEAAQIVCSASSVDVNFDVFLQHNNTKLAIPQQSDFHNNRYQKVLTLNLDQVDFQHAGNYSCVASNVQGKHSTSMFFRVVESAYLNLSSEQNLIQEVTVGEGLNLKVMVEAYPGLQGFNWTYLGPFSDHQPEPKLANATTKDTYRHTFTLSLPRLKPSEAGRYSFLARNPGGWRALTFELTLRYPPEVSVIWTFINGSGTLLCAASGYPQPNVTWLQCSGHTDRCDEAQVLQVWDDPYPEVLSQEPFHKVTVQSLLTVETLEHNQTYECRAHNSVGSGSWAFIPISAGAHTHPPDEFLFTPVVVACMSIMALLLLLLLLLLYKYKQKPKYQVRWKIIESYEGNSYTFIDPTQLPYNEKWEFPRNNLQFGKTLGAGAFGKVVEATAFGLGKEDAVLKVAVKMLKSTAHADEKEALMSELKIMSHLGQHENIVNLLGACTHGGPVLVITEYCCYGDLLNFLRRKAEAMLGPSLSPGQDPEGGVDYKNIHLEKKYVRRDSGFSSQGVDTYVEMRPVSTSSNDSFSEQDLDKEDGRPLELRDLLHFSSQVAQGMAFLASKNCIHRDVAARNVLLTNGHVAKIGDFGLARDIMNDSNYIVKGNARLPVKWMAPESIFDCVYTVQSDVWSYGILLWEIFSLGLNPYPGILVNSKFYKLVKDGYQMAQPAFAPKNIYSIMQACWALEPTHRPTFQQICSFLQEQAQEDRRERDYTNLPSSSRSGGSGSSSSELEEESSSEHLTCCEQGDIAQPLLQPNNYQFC
# Aurora A, sequence (O14965 whole entry): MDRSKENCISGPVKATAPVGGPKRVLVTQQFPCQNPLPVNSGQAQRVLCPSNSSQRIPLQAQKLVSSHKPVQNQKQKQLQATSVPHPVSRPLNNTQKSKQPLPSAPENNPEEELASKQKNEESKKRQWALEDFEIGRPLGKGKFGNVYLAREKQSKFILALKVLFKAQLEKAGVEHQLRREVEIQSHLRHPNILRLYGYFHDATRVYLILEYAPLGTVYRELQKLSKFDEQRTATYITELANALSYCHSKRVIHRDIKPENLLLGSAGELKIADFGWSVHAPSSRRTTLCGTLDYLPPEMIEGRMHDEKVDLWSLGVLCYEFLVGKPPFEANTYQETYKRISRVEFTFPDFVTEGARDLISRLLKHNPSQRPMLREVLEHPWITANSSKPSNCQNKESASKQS
# ZAP70, sequence (P43403 whole entry): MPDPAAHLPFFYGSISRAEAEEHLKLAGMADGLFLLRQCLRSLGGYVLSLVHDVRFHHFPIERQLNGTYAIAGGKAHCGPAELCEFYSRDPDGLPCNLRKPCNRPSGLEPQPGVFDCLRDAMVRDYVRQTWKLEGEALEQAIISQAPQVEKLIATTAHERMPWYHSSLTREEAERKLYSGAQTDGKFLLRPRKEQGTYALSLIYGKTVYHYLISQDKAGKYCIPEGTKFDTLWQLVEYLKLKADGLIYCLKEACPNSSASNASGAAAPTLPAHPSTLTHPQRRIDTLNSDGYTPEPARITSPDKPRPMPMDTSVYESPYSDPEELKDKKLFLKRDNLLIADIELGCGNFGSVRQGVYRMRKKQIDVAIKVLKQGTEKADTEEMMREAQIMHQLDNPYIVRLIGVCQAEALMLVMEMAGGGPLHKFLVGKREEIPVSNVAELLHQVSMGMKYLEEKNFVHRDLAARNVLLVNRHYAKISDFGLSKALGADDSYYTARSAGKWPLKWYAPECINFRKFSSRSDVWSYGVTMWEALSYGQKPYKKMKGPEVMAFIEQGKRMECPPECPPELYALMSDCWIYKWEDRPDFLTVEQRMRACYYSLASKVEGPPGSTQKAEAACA
# EPHA3, sequence (P29320 21-983): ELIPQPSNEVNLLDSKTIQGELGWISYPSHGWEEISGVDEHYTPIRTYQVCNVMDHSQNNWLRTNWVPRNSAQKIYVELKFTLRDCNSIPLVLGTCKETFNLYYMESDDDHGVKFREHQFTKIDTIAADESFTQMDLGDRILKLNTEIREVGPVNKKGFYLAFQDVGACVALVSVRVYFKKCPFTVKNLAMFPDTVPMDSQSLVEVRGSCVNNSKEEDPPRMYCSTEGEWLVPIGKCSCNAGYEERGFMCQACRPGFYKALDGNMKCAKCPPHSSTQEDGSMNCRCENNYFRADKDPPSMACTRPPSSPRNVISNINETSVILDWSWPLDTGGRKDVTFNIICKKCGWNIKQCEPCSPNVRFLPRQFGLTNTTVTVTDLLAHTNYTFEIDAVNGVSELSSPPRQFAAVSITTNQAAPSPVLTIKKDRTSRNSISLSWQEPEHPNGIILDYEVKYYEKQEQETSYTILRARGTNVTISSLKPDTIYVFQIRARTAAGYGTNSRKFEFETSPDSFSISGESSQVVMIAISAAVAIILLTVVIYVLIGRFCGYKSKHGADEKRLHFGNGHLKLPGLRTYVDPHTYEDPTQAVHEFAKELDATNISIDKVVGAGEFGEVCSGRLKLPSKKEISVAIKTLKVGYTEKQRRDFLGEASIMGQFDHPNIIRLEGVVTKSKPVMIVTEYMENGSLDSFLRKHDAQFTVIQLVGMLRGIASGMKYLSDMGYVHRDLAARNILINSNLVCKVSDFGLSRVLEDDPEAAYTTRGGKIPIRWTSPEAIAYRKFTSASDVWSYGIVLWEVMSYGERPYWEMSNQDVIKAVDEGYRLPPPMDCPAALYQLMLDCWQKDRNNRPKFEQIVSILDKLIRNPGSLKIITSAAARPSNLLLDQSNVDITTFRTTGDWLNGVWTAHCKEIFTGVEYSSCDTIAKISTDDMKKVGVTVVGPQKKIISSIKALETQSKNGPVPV
# MKK7, sequence (O14733 whole entry): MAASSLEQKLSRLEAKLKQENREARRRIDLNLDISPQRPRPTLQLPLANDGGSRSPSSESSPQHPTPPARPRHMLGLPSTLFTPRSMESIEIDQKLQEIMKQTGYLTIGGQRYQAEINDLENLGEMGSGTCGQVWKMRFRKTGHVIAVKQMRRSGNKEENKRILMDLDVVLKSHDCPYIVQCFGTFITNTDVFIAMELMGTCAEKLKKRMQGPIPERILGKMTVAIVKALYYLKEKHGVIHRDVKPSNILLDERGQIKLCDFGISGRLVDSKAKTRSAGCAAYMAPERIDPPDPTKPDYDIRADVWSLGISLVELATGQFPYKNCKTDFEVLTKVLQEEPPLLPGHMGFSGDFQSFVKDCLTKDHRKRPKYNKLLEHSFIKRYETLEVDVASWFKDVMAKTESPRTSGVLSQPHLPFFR
# AURKA, sequence (O14965 whole entry): as the sequence (O14965 whole entry) above
SMILES,Kd (FLT3),inhibition at 0.5 µM (EPHA3) [%],inhibition at 0.5 µM (Aurora A) [%],inhibition at 0.5 µM (CTK/MATK) [%],inhibition at 0.5 µM (FRK/PTK5) [%],inhibition at 0.5 µM (MKK7) [%],inhibition at 0.5 µM (PAK1) [%],inhibition at 0.5 µM (FMS) [%],inhibition at 0.5 µM (ZAP70) [%],inhibition at 0.5 µM (HIPK1) [%],"Kd (FLT3 (ITD, F691L)) [nM]",Kd (SRC) [nM],Kd (PIK3CA) [nM],Kd (LYN) [nM],Kd (BLK) [nM],Kd (FYN) [nM],Kd (PIM1) [nM],Kd (AURKA) [nM],Kd (FGR) [nM],Kd (FAK) [nM],other results
CN(C)CC(O)CNC(=O)c1ccc(C#Cc2c(N)ncc3ccc(Cl)cc23)cc1 (stereo not shown) [HSM1702],,,,,,,,,,,,,,,,,,,,,Percentage kinase inhibition EPHA3 (EPHA3): 0%; Percentage kinase inhibition Aurora A (Aurora A): 19%; Percentage kinase inhibition CTK/MATK (CTK/MATK): 0%; Percentage kinase inhibition FRK/PTK5 (FRK/PTK5): 0%; Percentage kinase inhibition MKK7 (MKK7): 0%; Percentage kinase inhibition PAK1 (PAK1): 1%; Percentage kinase inhibition FMS (FMS): 35%; Percentage kinase inhibition ZAP70 (ZAP70): 0%; Percentage kinase inhibition HIPK1 (HIPK1): 42%; Percent inhibition of proliferation HCT116 (HCT116): 33%
"Cc1ccc(C(=O)Nc2ccc(CN3CCN(C)CC3)c(C(F)(F)F)c2)cc1C#Cc1cnc(N)c2ccccc12 [HSN334, 3-((1-aminoisoquinolin-4-yl)ethynyl)-4-methyl-N-(4-((4-methylpiperazin-1-yl)methyl)-3-(trifluoromethyl)phenyl)benzamide]",5.1 nM,,,,,,,,,,,,,,,,,,,,
COc1cc2nc(N)nc(C#Cc3cc(C(=O)Nc4ccc(CN5CCN(C)CC5)c(C(F)(F)F)c4)ccc3C)c2cc1OC [HSN325],,6,0,5,49,6,0,93,0,0,,,,,,,,,,,
Cc1ccc(C(=O)Nc2ccc(CN3CCN(C)CC3)c(C(F)(F)F)c2)cc1C#Cc1c(N)ncc2ccc(Cl)cc12 [HSN286],6.5 nM and 7.2 nM,96,0,0,95,0,0,99,0,0,110,16,26000,11,3.9,28,11000,> 30000,7,5100,"Kd (KIT): 42 nM; Kd (HCK): 3.6 nM; Kd (PLK1): > 30000 nM; inhibition at 1 µM (HCT116; Homo sapiens, HCT-116, read-out: Percent inhibition of proliferation HCT116): 100%"
"Cc1ccc(C(=O)Nc2ccc(CN3CCN(C)CC3)c(C(F)(F)F)c2)cc1C#Cc1cnc(N)c2ncccc12 [HSN356, 3-((8-amino-1,7-naphthyridin-5-yl)ethynyl)-4-methyl-N-(4-((4-methylpiperazin-1-yl)methyl)-3-(trifluoromethyl)phenyl)benzamide]",1.3 nM,,,,,,,,,,28,15,> 30000,5.4,1.2,38,19000,5100,7.9,4700,Kd (KIT): 7.2 nM; Kd (HCK): 2.5 nM; Kd (PLK1): 9600 nM

# Source: patent US20250084039A1, “4-SUBSTITUTED AMINOISOQUINOLINE DERIVATIVES” (Purdue Research Foundation, priority 2016, published 2025)
